Assay results as given in ChEMBL document CHEMBL4316583, “In Vitro and in Vivo Antitumor Effects of Plant-Derived Miliusanes and Their Induction of Cellular Senescence” (J Med Chem, 2019).
Activity calls are given as the source filed them. The rule behind the calls is not given here.

Legend:
Mus musculus [1] = assay: Induction of cellular senescence in BALB/c mouse xenografted with human HCT116 cells assessed as up-regulation of p16 protein expression at 20 mg/kg, administered every other day for 3 weeks by immunohistochemical analysis; format: functional, organism-based
HCT-116 [2] = assay: Induction of cellular senescence in human HCT116 cells assessed as up-regulation of p21 protein expression at 0.05 to 0.2 ug/ml after 48 hrs by Western blot analysis; format: functional, cell-based
HCT-116 [3] = assay: Induction of cellular senescence in human HCT116 cells at 0.22 uM after 48 hrs by SA-beta-gal-staining based assay; format: functional, cell-based
HeLa [4] = assay: Antitumor activity against human HeLa cells xenografted in nude BALB/c mouse assessed as tumor growth inhibition at 10 mg/kg, ip administered every other day for 21 days and observed for 6 days before sacrifice relative to control; format: functional; conditions: read-out: TGI
HCT-116 [5] = assay: Antitumor activity against human HCT116 cells xenografted in nude BALB/c mouse assessed as tumor growth inhibition at 20 mg/kg, ip administered every other day for 21 days relative to control; format: functional; conditions: HCT-116, ip, 504 h, read-out: TGI
HCT-116 [6] = assay: Antitumor activity against human HCT116 cells xenografted in nude BALB/c mouse assessed as tumor growth inhibition at 10 mg/kg, ip administered daily for 21 days relative to control; format: functional; conditions: HCT-116, ip, 504 h, read-out: TGI
HT-29 = assay: Growth inhibition human HT-29 cells after 72 hrs by MTS assay; format: functional, cell-based
HCT-116 [7] = assay: Induction of cellular senescence in human HCT116 cells assessed as up-regulation of CDKN1A gene at 0.22 uM after 48 hrs by qPCR assay; format: functional, cell-based
A-375 [8] = assay: Antitumor activity against human A375 cells xenografted in nude BALB/c mouse assessed as suppression of tumor volume at 7.5 mg/kg, ip administered every other day for 23 days relative to control; format: functional; conditions: A-375, ip, 552 h, read-out: TGI
[9] = Toxicity in nude BALB/c mouse xenografted with human HeLa cells assessed as body weight loss at 30 mg/kg, administered every other day for 21 days; format: organism-based; conditions: in vivo, 504 h
HeLa [10] = assay: Antitumor activity against human HeLa cells xenografted in nude BALB/c mouse assessed as tumor growth inhibition at 30 mg/kg, ip administered every other day for 21 days and observed for 6 days before sacrifice relative to control; format: functional; conditions: read-out: TGI
A-375 [11] = assay: Antitumor activity against human A375 cells xenografted in nude BALB/c mouse assessed as tumor growth inhibition at 7.5 mg/kg, ip administered every other day for 23 days relative to control; format: functional; conditions: A-375, ip, 552 h, read-out: TGI
A-375 [12] = assay: Antitumor activity against human A375 cells xenografted in nude BALB/c mouse assessed as tumor growth inhibition at 15 mg/kg, ip administered every other day for 23 days relative to control; format: functional; conditions: A-375, ip, 552 h, read-out: TGI
HCT-116 [13] = assay: Antiproliferative activity against human HCT116 cells xenografted in BALB/c mouse at 20 mg/kg, administered every other day for 3 weeks by Ki67-staining based assay; format: functional, organism-based
HCT-116 [14] = assay: Antiproliferative activity against human HCT116 cells assessed as inhibition of colony formation at 1.77 uM after 14 days by crystal violet-staining based assay; format: functional, cell-based
[15] = Toxicity in nude BALB/c mouse xenografted with human HeLa cells assessed as body weight loss at 20 mg/kg, administered every other day for 21 days; format: organism-based; conditions: in vivo, 504 h
[16] = Toxicity in nude BALB/c mouse xenografted with human HCT116 cells assessed as body weight loss at 30 mg/kg, ip administered daily for 3 weeks; format: organism-based; conditions: in vivo, 504 h
[17] = Toxicity in nude BALB/c mouse xenografted with human A375 cells assessed as body weight loss at 15 mg/kg, ip administered every other day for 23 days; format: organism-based; conditions: in vivo, 552 h
HCT-116 [18] = assay: Induction of cellular senescence in human HCT116 cells assessed as up-regulation of p16 protein expression at 0.05 to 0.2 ug/ml after 48 hrs by Western blot analysis; format: functional, cell-based
HCT-116 [19] = assay: Antitumor activity against human HCT116 cells xenografted in nude BALB/c mouse assessed as tumor growth inhibition at 20 mg/kg, ip administered daily for 21 days relative to control; format: functional; conditions: HCT-116, ip, 504 h, read-out: TGI
HeLa [20] = assay: Antitumor activity against human HeLa cells xenografted in nude BALB/c mouse assessed as suppression of excised tumor size at 10 mg/kg, ip administered every other day for 21 days and observed for 6 days before sacrifice relative to control; format: functional
A-375 [21] = assay: Antitumor activity against human A375 cells xenografted in nude BALB/c mouse assessed as suppression of tumor volume at 15 mg/kg, ip administered every other day for 23 days relative to control; format: functional; conditions: A-375, ip, 552 h, read-out: TGI
HCT-116 [22] = assay: Cytotoxicity against human HCT116 cells assessed as cell growth inhibition after 24 hrs by sulforhodamine B assay; format: functional, cell-based; conditions: HCT-116, 24 h
HCT-116 [23] = assay: Induction of cellular senescence in human HCT116 cells assessed as up-regulation of p21 protein expression at 0.22 uM after 48 hrs in presence of p21 siRNA by SA-beta-gal-staining based Western blot analysis; format: functional, cell-based
Mus musculus [24] = assay: Induction of cellular senescence in BALB/c mouse xenografted with human HCT116 cells assessed as up-regulation of p21 protein expression at 20 mg/kg, administered every other day for 3 weeks by immunohistochemical analysis; format: functional, organism-based
[25] = Toxicity in nude BALB/c mouse xenografted with human HCT116 cells assessed as body weight loss at 40 mg/kg, administered every other day for 21 days; format: organism-based; conditions: in vivo, 504 h
HeLa [26] = assay: Antitumor activity against human HeLa cells xenografted in nude BALB/c mouse assessed as suppression of excised tumor size at 30 mg/kg, ip administered every other day for 21 days and observed for 6 days before sacrifice relative to control; format: functional
Mus musculus [27] = assay: Effect on p27 protein expression in BALB/c mouse xenografted with human HCT116 cells at 20 mg/kg, administered every other day for 3 weeks by immunohistochemical analysis; format: functional, organism-based
HCT-116 [28] = assay: Cytotoxicity against human HCT116 cells assessed as cell growth inhibition after 48 hrs by sulforhodamine B assay; format: functional, cell-based; conditions: HCT-116, 48 h
HeLa [29] = assay: Antitumor activity against human HeLa cells xenografted in nude BALB/c mouse assessed as suppression of excised tumor size at 20 mg/kg, ip administered every other day for 21 days and observed for 6 days before sacrifice relative to control; format: functional
[30] = Toxicity in nude BALB/c mouse xenografted with human HCT116 cells assessed as body weight loss at 10 to 20 mg/kg, ip measured on day 10 and 11; format: organism-based; conditions: in vivo
HeLa [31] = assay: Antitumor activity against human HeLa cells xenografted in nude BALB/c mouse assessed as tumor growth inhibition at 20 mg/kg, ip administered every other day for 21 days and observed for 6 days before sacrifice relative to control; format: functional; conditions: read-out: TGI
HCT-116 [32] = assay: Induction of cellular senescence in human HCT116 cells assessed as up-regulation of TP53 gene at 0.22 uM after 48 hrs by qPCR assay; format: functional, cell-based
[33] = Toxicity in nude BALB/c mouse xenografted with human HCT116 cells assessed as body weight loss at 10 mg/kg, ip administered daily for 3 weeks; format: organism-based; conditions: in vivo, 504 h
[34] = Toxicity in BALB/c mouse assessed as mortality at 2.5 mg/kg, ip administered daily for 28 days; format: organism-based; conditions: in vivo, read-out: Activity
HCT-116 [35] = assay: Induction of apoptosis in human HCT116 cells assessed as viable cells at 5.86 nM after 48 hrs by annexin V/propidium iodide-double staining based flow cytometry (reference value: 88.3%); format: functional; conditions: HCT-116, 48 h, read-out: Activity
HCT-116 [36] = assay: Induction of apoptosis in human HCT116 cells assessed as late apoptotic cells at 5.86 nM after 48 hrs by annexin V/propidium iodide-double staining based flow cytometry (reference value: 4.6%); format: functional
A2780 = assay: Growth inhibition human A2780 cells after 72 hrs by MTS assay; format: functional, cell-based; conditions: A2780, 72 h
[37] = Toxicity in nude BALB/c mouse xenografted with human A375 cells assessed as body weight loss at 10 mg/kg, ip measured on day 17 and 21; format: organism-based; conditions: in vivo
[38] = Toxicity in BALB/c mouse assessed as mortality at 5 mg/kg, ip dosed daily and measured on day 25; format: organism-based; conditions: in vivo
HCT-116 [39] = assay: Induction of apoptosis in human HCT116 cells assessed as early apoptotic cells at 5.86 nM after 48 hrs by annexin V/propidium iodide-double staining based flow cytometry (reference value: 4.8%); format: functional
HCT-116 [40] = assay: Antitumor activity against human HCT116 cells xenografted in nude BALB/c mouse assessed as reduction in volume of growing subcutaneous tumor at 10 mg/kg, ip administered twice a week for 3 weeks; format: functional, organism-based
A-375 [41] = assay: Cytotoxicity against human A375 cells assessed as cell growth inhibition after 48 hrs by sulforhodamine B assay; format: functional, cell-based; conditions: A-375, 48 h
HCT-116 [42] = assay: Antitumor activity against human HCT116 cells xenografted in nude BALB/c mouse assessed as tumor growth inhibition at 10 mg/kg, ip administered twice a week for 3 weeks relative to control; format: functional; conditions: HCT-116, ip, 504 h, read-out: TGI
HCT-116 [43] = assay: Induction of apoptosis in human HCT116 cells assessed as necrotic cells at 5.86 nM after 48 hrs by annexin V/propidium iodide-double staining based flow cytometry (reference value: […]); format: functional
[44] = Toxicity in human HCT116 cells xenografted nude BALB/c mouse assessed as tumor growth inhibition at 7.5 mg/kg, ip administered daily for 11 days; format: organism-based; conditions: in vivo, 264 h

SMILES: CC(C)=CCC/C(C)=C/[C@H]1OC(=O)C[C@]12C[C@H](OC(=O)c1ccc(N(C)C)cc1)C=CC2=O
- Activity (Mus musculus [1]): Active
- Activity (HCT-116 [2]): Active
- Activity (HCT-116 [3]): Active
- inhibition in vivo at 10 mg/kg (HeLa [4]): 17.2%
- inhibition in vivo at 20 mg/kg (HCT-116 [5]): 40 to 48.3%
- inhibition in vivo at 10 mg/kg (HCT-116 [6]): 51%
- growth inhibition (GI) (HT-29): Active
- Activity (HCT-116 [7]): Active
- inhibition in vivo at 7.5 mg/kg (A-375 [8]): 39.6%
- Activity [9]: 2.2 g
- inhibition in vivo at 30 mg/kg (HeLa [10]): 75.9%
- inhibition in vivo at 7.5 mg/kg (A-375 [11]): 20.6%
- inhibition in vivo at 15 mg/kg (A-375 [12]): 19.4%
- Activity (HCT-116 [13]): Active
- Activity (HCT-116 [14]): Active
- Activity [15]: 0.9 g
- Activity [16]: 2 g
- Activity [17]: 1.5 g
- Activity (HCT-116 [18]): Active
- inhibition in vivo at 20 mg/kg (HCT-116 [19]): 57.1%
- Activity (HeLa [20]): 29.6%
- inhibition in vivo at 15 mg/kg (A-375 [21]): 39.4%
- IC50 (HCT-116 [22]): 2570 nM
- Activity (HCT-116 [23]): inactive
- Activity (Mus musculus [24]): Active
- Activity [25]: Non-Toxic
- Activity (HeLa [26]): 76.9%
- Activity (Mus musculus [27]): inactive
- IC50 (HCT-116 [28]): 1690 nM
- Activity (HeLa [29]): 55.4%
- Activity [30]: Toxic
- inhibition in vivo at 20 mg/kg (HeLa [31]): 54.7%
- Activity (HCT-116 [32]): Active
- Activity [33]: Non-Toxic

SMILES: CC(=O)O[C@H]1C(=O)[C@@]2(C)[C@H]([C@H](OC(=O)c3ccccc3)[C@]3(O)C[C@H](OC(=O)[C@H](O)[C@@H](NC(=O)c4ccccc4)c4ccccc4)C(C)=C1C3(C)C)[C@]1(OC(C)=O)CO[C@@H]1C[C@@H]2O [PACLITAXEL]
- mortality at 672 h [34]: 30%
- viability at 0.00586 µM (HCT-116 [35]): 67.3%
- inhibition in vivo at 10 mg/kg (HeLa [4]): 46.5%
- Activity (HCT-116 [36]): 9.4%
- IC50 (A2780): 1.5 nM
- Activity [37]: Toxic
- Activity [38]: Toxic
- Activity (HCT-116 [39]): 14.1%
- Activity (HCT-116 [40]): Active
- IC50 (A-375 [41]): 2 nM
- Activity (HeLa [20]): 48.9%
- inhibition in vivo at 10 mg/kg (HCT-116 [42]): 52.6%
- Activity (HCT-116 [43]): 9.2%
- Activity [44]: Toxic
